In one data set the test system is Klebsiella aerogenes 62. The experiment in a line: MIC / synergism, microtitre method (Example 42). Type of data set: cell-based. Particulars: method of Example 42 (μg/ml).
Data set [1] concerns Staphylococcus aureus Russell. The experiment in a line: MIC, microtitre technique (Example 53). Type of data set: cell-based.
Text: (§1) The results were obtained by the microtitre technique with an inoculum of 1/500 of overnight broth.
In data set [2] the test system is Klebsiella aerogenes E 70. In words: MIC / synergism, microtitre method (Example 42). It counts as cell-based. Particulars: method of Example 42 (μg/ml).
Data set [3] deals with Staphylococcus aureus (Russell). In words: MIC / synergism with methyl ester (Example 32). It counts as cell-based. Particulars: in the presence of 1.0 μg/ml. clavulanic acid methyl ester.
For a further data set, the system named is Proteus mirabilis C889. In words: MIC / synergism with methyl ester (Example 32). Particulars: in the presence of 5 μg/ml. clavulanic acid methyl ester. Type of data set: cell-based.
The next data set has as its system Klebsiella aerogenes E70. In words: MIC, microtitre technique (Example 53). Type of data set: cell-based.
The test system of a further data set is Klebsiella aerogenes A. In words: MIC / synergism, microtitre method (Example 42). Type of data set: cell-based. Particulars: method of Example 42 (μg/ml).
Data set [4] deals with T1, β-lactamase of Staphylococcus aureus (Russell) (Staphylococcus aureus, UniProt P00807).
T1 construct: endogenous in cells; host or cells: Staphylococcus aureus (Russell)
The experiment in a line: β-lactamase inhibition assay. It counts as biochemical. Conditions: standard enzyme inhibitory assay (Example 49); read-out: I50 (converted).
Experimental: Solutions containing clavulanic acid (culture filtrate, samples from isolation procedure and the like) are incubated for 15 minutes with a β-lactamase preparation in 0.05M phosphate buffer at pH 7 and 37° C. During this time, enzyme inhibition or inactivation occurs. Substrate (benzylpenicillin) is then added and incubation continued for 30 minutes at 37° C. The amount of enzymic degradation of the substrate to penicilloic acid is determined by the hydroxylamine assay for penicillin. The amount of β-lactamase used is such as to give 75% hydrolysis of the benzylpenicillin in 30 minutes at 37° C.
(§2) The extent of hydrolysis is a reflection of the amount of enzyme remaining uninhibited.
Suitable dilutions of the inhibitor preparation and β-lactamase solution are mixed and incubated at 37° C for 15 minutes (Test). A control with buffer in place of inhibitor preparation is also incubated. Benzylpenicillin solution (substrate) is then added to test and control mixtures, incubation continued for a further 30 minutes at 37° C. […] 6 ml. of hydroxylamine reagent are added to all tests, controls and blanks and are allowed to react for 10 minutes at room temperature prior to the addition of 2 ml of ferric ammonium sulphate reagent. The absorption of the final solutions is measured in an E.E.L. Colorimeter or a Spectrophotometer at 490 nm against the reagent blank.

In data set [5] the target is T2, β-lactamase produced by Escherichia coli JT4 (Escherichia coli, UniProt P62593).
T2 construct: This cell suspension was then disrupted in an MSE ultrasonic disintegrator at 4° C; endogenous in cells; host or cells: Escherichia coli JT4 (ampicillin-resistant, R-factor), supernatant of sonicated cells
The experiment in a line: β-lactamase inhibition assay (Description 1). Type of data set: biochemical.
Experimental: During this time, enzyme inhibition or inactivation occurs. Substrate (benzylpenicillin) is then added and incubation continued for 30 minutes at 37° C. The amount of enzymic degradation of the substrate to penicilloic acid is determined by the hydroxylamine assay for penicillin. The amount of β-lactamase used is such as to give 75% hydrolysis of the benzylpenicillin in 30 minutes at 37° C.
as §2
The β-lactamase produced by Escherichia coli JT4 is used as an enzyme. […] Other similar R-factor controlled β-lactamases may be used if desired.
The culture maintained on nutrient agar slopes, is inoculated into 400 ml. of sterile Tryptone medium contained in a 2 liter conical flask. This medium has the following composition Tryptone (Oxoid) 32 g/l, yeast extract (Oxoid) 20 g/l, NaCl 5 g/l and CaCl2 6H2 O 2.2 g/l. The final pH was adjusted to 7.4 with dilute NaOH. The flask is shaken at 25° C for 20 hours on a rotary shaker at 240 r.p.m. […]
Suitable dilutions of the inhibitor preparation and β-lactamase solution are mixed and incubated at 37° C for 15 minutes (Test). […] The absorption of the final solutions is measured in an E.E.L. Colorimeter or a Spectrophotometer at 490 nm against the reagent blank.
The percentage inhibition of the β-lactamase is calculated as follows […]

The test system of data set [6] is Staphylococcus aureus(Russell). The experiment in a line: MIC / synergism, microtitre method (Example 42). It counts as cell-based. Conditions: synergist (clavulanic acid sodium salt) added at 1 μg/ml. instead of 5 μg/ml.
A short description of data set [7]: hydrolysis of ester in phosphate buffer pH 7. Particulars: 1 mg/ml., 37° C, 0.05M phosphate buffer at pH 7, followed over 2 hours by paper chromatography. It counts as physicochemical. As for the experimental part:
The reaction was followed by paper chromatography (bioautographic system). Using the butanol/ethanol/water system to follow the reaction over a period of 2 hours the zone of the methyl ester at Rf 0.79 decreased in size as the zone of clavulanic acid at Rf 0.12 increased.

[8] abbreviates: head prints sodium clavulanate, title sodium isoclavulanate, inoculum 1/500.

Where a name gives a salt, the structure may show the parent alone.

Broadly, the MIC is the lowest concentration found to suppress growth.

T2 sequence (P62593 24-286 limits assumed): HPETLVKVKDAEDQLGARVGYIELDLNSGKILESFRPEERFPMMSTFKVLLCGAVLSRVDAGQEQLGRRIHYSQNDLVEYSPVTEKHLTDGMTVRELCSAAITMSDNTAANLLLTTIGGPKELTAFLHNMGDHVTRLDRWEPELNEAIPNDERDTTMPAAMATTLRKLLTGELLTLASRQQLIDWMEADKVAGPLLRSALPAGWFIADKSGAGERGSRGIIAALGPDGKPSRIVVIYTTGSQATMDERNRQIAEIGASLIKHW
T1 sequence (P00807 25-281): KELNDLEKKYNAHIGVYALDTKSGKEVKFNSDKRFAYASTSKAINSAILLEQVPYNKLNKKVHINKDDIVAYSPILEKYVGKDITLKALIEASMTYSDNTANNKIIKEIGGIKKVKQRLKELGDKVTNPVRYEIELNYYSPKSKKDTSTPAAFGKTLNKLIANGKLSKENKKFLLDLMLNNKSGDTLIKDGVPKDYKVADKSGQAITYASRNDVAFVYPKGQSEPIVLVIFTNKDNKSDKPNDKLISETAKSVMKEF
Text for Klebsiella aerogenes E70: as §1

`CC1(C)S[C@@H]2[C@H](NC(=O)[C@H](N)c3ccccc3)C(=O)N2[C@H]1C(=O)O` [Ampicillin, ampicillin]: the “MIC of Ampicillin + 5 μg/ml of Benzyl Ester of clavulanic acid” value in the data set with Klebsiella aerogenes 62 turned out to be 3.9; in data set [2], 3.9; in the data set on Klebsiella aerogenes A, 1.9. Besides, the “MIC of Ampicillin + 5 μg/ml of Methyl Ester of clavulanic acid” value stood at 3.9 in the data set on Klebsiella aerogenes 62, 3.9 in data set [2] and 1.9 in the data set on Klebsiella aerogenes A. Besides, the “MIC of Ampicillin + 1μg/ml sodium clavulanate” value was 3.9 µg/mL in data set [1] (setting [8]) and 15.6 µg/mL in the data set on Klebsiella aerogenes E70 (setting [8]). Further, the “MIC of Ampicillin + 5μg/ml sodium clavulanate” value in [1] (setting [8]) was 0.78 µg/mL. Moreover, the “MIC of Ampicillin + 20μg/ml sodium clavulanate” value in data set [1] (setting [8]) turned out to be 0.39 µg/mL; with Klebsiella aerogenes E70 (setting [8]) it was 6.2 µg/mL. In addition, the “minimum inhibitory concentration (M.I.C.) of antibiotic in presence of synergist” value in data set [3] was less than 0.4 µg/mL; in the data set with Proteus mirabilis C889, 31 µg/mL.

For `O=C(COc1ccccc1)OC/C=C1\O[C@@H]2CC(=O)N2[C@H]1C(=O)OCc1ccccc1` [Benzyl phenoxyacetylclavulanate], the IC50 in data set [4] is 17.7 µM; in [5] (benzylpenicillin substrate, 15 min preincubation, pH 7, 37° C), 5.9 µM.

`O=C(Cc1cccs1)N[C@@H]1C(=O)N2C(C(=O)[O-])=C(C[n+]3ccccc3)CS[C@H]12` [Cephaloridine, cephaloridine]: in data set [6], the “Minimum Inhibitory Concentration of cephaloridine in presence of synergist” value is “Same value”.

Regarding `COC(=O)[C@H]1/C(=C/CO)O[C@@H]2CC(=O)N21` [clavulanic acid methyl ester], in [7], the “hydrolysis of the ester to clavulanic acid” value is “Slow conversion of the ester to clavulanic acid”.

For the compound `O=C(O)[C@H]1/C(=C/CO)O[C@@H]2CC(=O)N21` [clavulanic acid sodium salt, 3-(β-hydroxyethylidine)-7-oxo-4-oxa-1-azabicyclo [3,2,0]heptane-2-carboxylic acid sodium salt], the MIC worked out at 125 µg/mL in data set [1] (Staphylococcus aureus, compound alone, inoculum of 1/500 of overnight broth) and 500 µg/mL with Klebsiella aerogenes E70 (Klebsiella aerogenes, E70).

As for `O=C(O)[C@H]1/C(=C/CO)O[C@@H]2CC(=O)N21` [clavulanic acid, Z-(2R,5R)-3-(β-hydroxyethylidene)-7-oxo-4-oxa-1-azabicyclo[3,2,0]heptane-2-carboxylic acid], the “mode of inhibition of the β-lactamase” value in [5] is “progressively and irreversibly inhibits”.

The record behind these values is patent US4123540A, “Isoclavulanic acid as an antibacterial and a β-lactamase inhibitor” (Beecham Group Limited, priority 1974, dated 1978).
